Laboratory results published in patent US10945612B2, “Assessing endothelial function using a blood pressure cuff” (The Regents of the University of California, priority 2014, dated 2021).
Entries after “also recorded” stand apart in the source; their conditions may differ.

How the values were obtained:
[1] = system: NO synthase; test: Cuff single pulse waveforms after endothelial stimulation with NO synthase blocked by L-NAME; assay type: in vivo, human; conditions: cuff inflated to 70 mm Hg; NO synthase blocked via L-NAME
Source text: Both the amplitude and slope of the rising edge of the pulse increase markedly after endothelial stimulation.
In an artery with intact endothelial function, both pulse height (maximal cross-sectional arterial area) and compliance (maximum slope of the rising edge) increase markedly over baseline. […] FIG. 4 illustrates how a five minute cuff occlusion and the ensuring reactive hyperemia lead to major increases in area change per pulse and the maximum derivative of the area per pulse. Both metrics return to baseline levels after 20 minutes. FIG. 5 confirms the repeatability of the protocol by illustrating the effects of a series of two cuff occlusion periods. We see from FIG. 6 that only a small slow drift in the measured quantities occurs when no reactive hyperemic stimulus is applied.

[2] = system: brachial artery; test: Cuff-based measurement of vasodilation (pulse amplitude relative to baseline) after sublingual nitroglycerin; assay type: in vivo, human
Procedure: Three individuals in the age-range of 28-38 were examined. All subjects had Framingham risk scores of 1% or less, and had no history of cardiovascular disease. Each individual was assessed at least three times before and after RH induced by five minutes of suprasystolic cuff occlusion. At least one additional measurement was made using the same protocol, except without cuff inflation. Sensitivity to a 0.4 mg dose of sublingual NG was assessed three times in two individuals.
Sensitivity to a 0.4 mg dose of sublingual NG was assessed three times in two individuals. In the analysis that follows, all of the datasets are pooled by stimulus. This addresses the question: Can the method measure changes in arterial tone due to vasorelaxatory stimuli and with what sensitivity?
A single quantity relating to the recorded pressure data, the pulse amplitude, was studied and it was posited that this is proportional to the arterial area. During the post stimulus interval, pressure data from the cuff were recorded approximately every 80 seconds, for a period of 30 seconds. During each recording interval, the cuff was inflated to 70 mm Hg, which was always below the measured diastolic pressure of the subject. To quantify the observed response, the mean of the pulse quantity (in this case, amplitude) during the response interval was divided by the mean value of the same quantity during the baseline interval. FIG. 10 illustrates the results.
v) The stimulus is applied. This is either 1-5 min of cuff occlusion to suprasystolic pressure Ps (for studies of endothelial function) or a dose of sublingual NG (for studies of endothelium-independent vasodilation).
(vi) After Tp=45 s have elapsed following cuff release or drug administration, a series of up to Nr=10 repeat measurement intervals ensue. In each interval, the cuff is inflated to Pm for Tm seconds, after which it is deflated for Tw seconds. This large number of repeat measurements (Nr)) is required only when one wishes to record the return of the vessel toward baseline.
[formula] and reported, e.g., to the user. […]

[3] = system: smooth muscle; conditions: 400 μg sublingual dose; Feldman et al. (1979), Adams et al. (1998); cited from earlier work

| Compound | compliance (maximum slope of the rising edge) increase over baseline after endothelial stimulation [1] | pulse height (maximal cross-sectional arterial area) increase over baseline after endothelial stimulation [1] | cDmax % ([2]; 400 μg sublingual NG, maximal vasodilation by the cuff-based method, relative to baseline) [%] | Mean ± SEM of maximum response over all data sets (dilation response) ([2]; 400 μg sublingual NG, ratio to baseline, pooled data sets) | Mean ± SEM of maximum Response over all data sets (amplitude response) ([2]; 0.4 mg sublingual NG, mean pulse amplitude in response interval divided by baseline, cuff at 70 mm Hg, pooled data sets) | smooth muscle dilation [3] |
| --- | --- | --- | --- | --- | --- | --- |
| COC(=O)[C@@H](N)CCCNC(=N)N[N+](=O)[O-] [L-NAME] | greatly attenuates this response; also recorded: greatly attenuated | greatly attenuates this response; also recorded: greatly attenuated |  |  |  |  |
| O=[N+]([O-])OCC(CO[N+](=O)[O-])O[N+](=O)[O-] [NG, nitroglycerin] |  |  | 70 | 1.70 ± 0.036 | 1.70 ± 0.036 | maximal smooth muscle dilation |
